OCc1ccc(O[C@@H]2O[C@H](CO)[C@@H](O)[C@H](O)[C@H]2O)cc1
solubility (mole fraction)
Settings	273.15 K	278.15 K	283.15 K	288.15 K	293.15 K	298.15 K	303.15 K	308.15 K	313.15 K
in 1,4-dioxane	–	–	–	0.00324	0.00373	0.0043	0.00493	0.00562	0.0063
in acetone	0.00097	0.00117	0.00142	0.00171	0.00199	0.00233	0.00273	0.00318	0.00368
in acetonitrile	0.00066	0.00076	0.00088	0.001	0.00115	0.0013	0.00147	0.00166	0.00188
in cyclohexane	0.000383	0.000624	0.000909	0.00125	0.0016	0.00213	0.00261	0.00326	0.00396
in cyclohexanone	0.00128	0.00152	0.00185	0.0022	0.00257	0.00299	0.00344	0.00396	0.00455
in ethanol	0.00085	0.00105	0.00129	0.00157	0.00188	0.0022	0.00255	0.00296	0.00337
in ethyl acetate	0.00174	0.002	0.00234	0.00274	0.00318	0.00364	0.00418	0.00481	0.00543
in isopropanol	0.00114	0.00139	0.00169	0.002	0.00235	0.00271	0.00312	0.00356	0.00403
in n-butanol	0.0368	0.0395	0.0423	0.0454	0.0486	0.0521	0.0557	0.0595	0.0633
in n-propanol	0.00074	0.00094	0.00115	0.00138	0.00165	0.00194	0.00226	0.00262	0.00301
in toluene	0.00148	0.0018	0.00212	0.00248	0.00288	0.0033	0.00378	0.00431	0.00493

— BigSolDB 2.1
